Values belong to the compound of their own block, whether it stands above or below them.
Tests used:
[1] = system: E. coli 76 KPC-2(+); assay: MIC of tested agent alone, microdilution; assay type: cell-based; settings: Escherichia coli; read-out: MIC of agent alone
Outline: (§1)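 Broth microdilution checkerboard: β-lactam in seven two-fold dilutions (1–64 mg/L) against tested agent or PBA in three two-fold dilutions (4–16 mg/L). Antibiotic MICs were read at each agent level, with agent-alone MICs run in parallel by microdilution.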

[2] = system: E. coli 77 CMY-2(+); assay: MIC of tested agent alone, microdilution; assay type: cell-based; settings: Escherichia coli; read-out: MIC of agent alone
Outline: as §1

[3] = system: K. pneumoniae 81 KPC-3(+); assay: MIC of tested agent alone, microdilution; assay type: cell-based; settings: Klebsiella pneumoniae; read-out: MIC of agent alone
Outline: as §1

[4] = system: K. pneumoniae 83 KPC-3(+), CTX-M-3(+); assay: MIC of tested agent alone, microdilution; assay type: cell-based; settings: Klebsiella pneumoniae; read-out: MIC of agent alone
Outline: as §1

[5] = system: K. pneumoniae ATCC BAA-1705 KPC-2(+); assay: MIC of tested agent alone, microdilution; assay type: cell-based; settings: Klebsiella pneumoniae, ATCCBAA1705; read-out: MIC of agent alone
Outline: as §1

[6] = system: P. aeruginosa MUW 700 AmpC(+); assay: MIC of tested agent alone, microdilution; assay type: cell-based; settings: Pseudomonas aeruginosa; read-out: MIC of agent alone
Outline: as §1

[7] = system: K. pneumoniae ATCC 700603 ESBL-positive; assay: combination disc test CDT-ESBL; assay type: cell-based; settings: Klebsiella pneumoniae, ATCC700603, read-out: Diameter of inhibition zone, CAZ-30 disc with agent; for zone of inhibition at 300 µg/disc: agent 0.3 mg per disc; for zone of inhibition at 100 µg/disc: agent 0.1 mg per disc
[8] = system: E. coli 77 CMY-2(+); assay: screening test of direct antimicrobial activity (STDA), disc-diffusion; assay type: cell-based; settings: Escherichia coli; 0.3 mg per disc; - no zone; read-out: Diameter of inhibition zone around disc with tested agent
Experimental: (§2) Prior to combination disc tests, screening tests of direct antimicrobial activity (STDA) of the tested agent against β-lactamase-producing strains were performed by the disc-diffusion method. Discs with 0.3 mg, 0.1 mg, and 0.03 mg of each agent were examined. The highest amount of an agent that caused no effect on bacterial growth was used in further experiments.

[9] = system: K. pneumoniae ATCC 700603 ESBL(+); assay: as above; assay type: cell-based; settings: Klebsiella pneumoniae, ATCC700603; 0.3 mg per disc; - no zone; read-out: Diameter of inhibition zone around disc with tested agent
Experimental: as §2

[10] = system: K. pneumoniae ATCC BAA 1705 KPC(+); assay: as above; assay type: cell-based; settings: Klebsiella pneumoniae, BAA1705; 0.3 mg per disc; - no zone; read-out: Diameter of inhibition zone around disc with tested agent
Experimental: as §2

[11] = system: P. aeruginosa MUW 700 AmpC(+); assay: as above; assay type: cell-based; settings: Pseudomonas aeruginosa; 0.3 mg per disc; - no zone; read-out: Diameter of inhibition zone around disc with tested agent
Experimental: as §2

[12] = system: P. aeruginosa MUW 700 cAmpC-positive; assay: checkerboard microdilution, antibiotic plus tested agent; assay type: cell-based, Pseudomonas aeruginosa
Experimental: To examine the ability of tested agents to inhibit various carbapenemases and AmpC-enzymes, their synergy with antibiotics against β-lactamase-producing strains was assessed by checkerboard microdilution assay, with slight modification. Checkerboards were prepared in microtiter plates, with seven two-fold dilutions of β-lactams (1–64 mg/L) in the rows and three two-fold dilutions of tested agents and PBA (4–16 mg/L) in the columns. Tested agents’ concentrations were limited to the concentrations at which the newest commercially available BLIs (vaborbactam, relebactam, and avibactam) are used in susceptibility testing. Plates were inoculated and incubated as in the MIC microdilution assay. Parallel, MICs of tested agents and PBA alone were determined by the microdilution assay. Following the incubation, antibiotic MICs in the presence of each agent’s concentration were determined. Moreover, for the first well without growth found in each checkerboard row and column along the growth/non-growth interface, the fractional inhibitory concentration index (FICI) was calculated using the formula below:FICI = [(MIC of antibiotic in combination)/(MIC of antibiotic alone)] + [(MIC of the tested agent in combination)/(MIC of tested agent alone)].
For calculations, all off-scale MICs were converted to the next-highest doubling concentration. Subsequently, both the average and the lowest FICI were interpreted. The interpretation was as follows: FICI ≤ 0.5, synergy; 0.5 < FICI ≤ 4, indifference and FICI > 4, antagonism. Primarily, examined combinations consisted of meropenem (Pol-Aura, Morag, Poland) plus tested agents against carbapenemases-producing strains and ceftazidime (Pol-Aura, Morag, Poland) plus tested agents against AmpC-producing strains. For agents that reduced meropenem MIC at least 4-fold for at least two tested strains, similar assays were performed with imipenem (Pol-Aura, Morag, Poland) and ertapenem (Pol-Aura, Morag, Poland).

[13] = system: E. coli 76 KPC-2-positive; assay: as above; assay type: cell-based, Escherichia coli
Outline: (§3)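 Chequerboard layout: tested agent in three two-fold steps (4–16 mg/L) crossed with seven β-lactam dilutions (1–64 mg/L), meropenem for KPC strains and ceftazidime for the cAmpC strain. FICI from first non-growth wells, off-scale MICs raised one doubling; ≤0.5 counts as synergy, >4 antagonism.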

[14] = system: K. pneumoniae 81 KPC-3-positive; assay: as above; assay type: cell-based, Klebsiella pneumoniae
Outline: as §3

[15] = system: K. pneumoniae 83 KPC-3-positive, CTX-M-3-positive; assay: as above; assay type: cell-based, Klebsiella pneumoniae
Outline: as §3

[16] = system: K. pneumoniae ATCC BAA-1705 KPC-2-positive; assay: as above; assay type: cell-based, Klebsiella pneumoniae
Outline: as §3

Structure (SMILES): OB(O)c1cc(C(F)(F)F)cc(B(O)O)c1F [2e]
MIC [1]: > 400 µg/mL
MIC [2]: > 400 µg/mL
MIC [3]: > 400 µg/mL
MIC [4]: > 400 µg/mL
MIC [5]: > 400 µg/mL
MIC [6]: > 400 µg/mL
zone of inhibition at 300 µg/disc [7]: 16 mm

Structure (SMILES): OB(O)c1ccc(B(O)O)c(F)c1F [1c]
zone of inhibition at 300 µg/disc [8]: 17 mm
zone of inhibition at 300 µg/disc [9]: 14 mm
zone of inhibition at 300 µg/disc [10]: 12 mm
zone of inhibition at 300 µg/disc [11]: 13 mm
MIC [1]: 200 µg/mL
MIC [2]: 200 µg/mL
MIC [3]: 200 µg/mL
MIC [4]: 200 µg/mL
MIC [5]: 200 µg/mL
MIC [6]: 400 µg/mL
zone of inhibition at 100 µg/disc [7]: 14 mm
Average FICI with ceftazidime [12]: 0.32
Interpretation of the average FICI with ceftazidime [12]: S (FICI ≤ 0.5, synergy)
Interpretation of the lowest FICI with ceftazidime [12]: S (FICI ≤ 0.5, synergy)
The lowest FICI with ceftazidime [12]: 0.17

Structure (SMILES): OB(O)c1cc(F)c(B(O)O)c(F)c1F [1f]
zone of inhibition at 300 µg/disc [8]: 15 mm
zone of inhibition at 300 µg/disc [9]: 18 mm
zone of inhibition at 300 µg/disc [10]: 16 mm
zone of inhibition at 300 µg/disc [11]: 12 mm
MIC [1]: 100 µg/mL
MIC [2]: 100 µg/mL
MIC [3]: 100 µg/mL
MIC [4]: 100 µg/mL
MIC [5]: 100 µg/mL
MIC [6]: > 400 µg/mL
zone of inhibition at 100 µg/disc [7]: 15 mm
Average FICI with ceftazidime [12]: 0.43
Interpretation of the average FICI with ceftazidime [12]: S (FICI ≤ 0.5, synergy)
Interpretation of the lowest FICI with ceftazidime [12]: S (FICI ≤ 0.5, synergy)
The lowest FICI with ceftazidime [12]: 0.27

Structure (SMILES): OB(O)c1cc(B(O)O)c(F)cc1F [2c]
zone of inhibition at 300 µg/disc [8]: 15 mm
zone of inhibition at 300 µg/disc [9]: 13 mm
zone of inhibition at 300 µg/disc [10]: 14 mm
zone of inhibition at 300 µg/disc [11]: 11 mm
MIC [1]: 200 µg/mL
MIC [2]: 200 µg/mL
MIC [3]: 200 µg/mL
MIC [4]: 200 µg/mL
MIC [5]: 400 µg/mL
MIC [6]: > 400 µg/mL
zone of inhibition at 100 µg/disc [7]: 13 mm
Average FICI with ceftazidime [12]: 0.22
Interpretation of the average FICI with ceftazidime [12]: S (FICI ≤ 0.5, synergy)
Interpretation of the lowest FICI with ceftazidime [12]: S (FICI ≤ 0.5, synergy)
The lowest FICI with ceftazidime [12]: 0.15

Structure (SMILES): OB(O)c1ccc(C(F)(F)F)cc1B(O)O [3e]
MIC [1]: > 400 µg/mL
MIC [2]: > 400 µg/mL
MIC [3]: > 400 µg/mL
MIC [4]: > 400 µg/mL
MIC [5]: > 400 µg/mL
MIC [6]: > 400 µg/mL
zone of inhibition at 300 µg/disc [7]: 14 mm

Continued, in another order:

MIC [1]: > 200 µg/mL
MIC [2]: > 200 µg/mL
MIC [3]: > 200 µg/mL
MIC [4]: > 200 µg/mL
MIC [5]: > 200 µg/mL
MIC [6]: > 200 µg/mL
Structure (SMILES): OB(O)c1ccccc1S [7c, 2-mercaptophenylboronic acid]
zone of inhibition at 300 µg/disc [7]: 15 mm

MIC [1]: > 400 µg/mL
MIC [2]: > 400 µg/mL
MIC [3]: > 400 µg/mL
MIC [4]: > 400 µg/mL
MIC [5]: > 400 µg/mL
MIC [6]: > 400 µg/mL
Structure (SMILES): OB(O)c1ccc(F)cc1B(O)O [3c]
zone of inhibition at 300 µg/disc [7]: 16 mm
Average FICI with ERT [13]: 0.43
Average FICI with IMI [13]: 0.22
Average FICI with MEM [13]: 0.43
The lowest FICI with ERT [13]: 0.27
The lowest FICI with IMI [13]: 0.15
The lowest FICI with MEM [13]: 0.27
Average FICI with ERT [14]: 0.22
Average FICI with IMI [14]: 0.18
Average FICI with MEM [14]: 0.18
The lowest FICI with ERT [14]: 0.15
The lowest FICI with IMI [14]: 0.14
The lowest FICI with MEM [14]: 0.14
Average FICI with ERT [15]: 0.43
Average FICI with IMI [15]: 0.35
Average FICI with MEM [15]: 0.22
The lowest FICI with ERT [15]: 0.27
The lowest FICI with IMI [15]: 0.26
The lowest FICI with MEM [15]: 0.15
Average FICI with ERT [16]: 0.43
Average FICI with IMI [16]: 0.35
Average FICI with MEM [16]: 0.51
The lowest FICI with ERT [16]: 0.27
The lowest FICI with IMI [16]: 0.26
The lowest FICI with MEM [16]: 0.51

Reference: article PMC10648349, “Aromatic Diboronic Acids as Effective KPC/AmpC Inhibitors” (Molecules, 2023)
